For 35 molecules, IC50 results are on record in patent publication US10202339B2, “Therapeutic compounds and compositions” (AGIOS PHARMACEUTICALS, INC., priority 2012, dated 2019).

Sequence of IDH1 R132H (O75874 whole entry R132H): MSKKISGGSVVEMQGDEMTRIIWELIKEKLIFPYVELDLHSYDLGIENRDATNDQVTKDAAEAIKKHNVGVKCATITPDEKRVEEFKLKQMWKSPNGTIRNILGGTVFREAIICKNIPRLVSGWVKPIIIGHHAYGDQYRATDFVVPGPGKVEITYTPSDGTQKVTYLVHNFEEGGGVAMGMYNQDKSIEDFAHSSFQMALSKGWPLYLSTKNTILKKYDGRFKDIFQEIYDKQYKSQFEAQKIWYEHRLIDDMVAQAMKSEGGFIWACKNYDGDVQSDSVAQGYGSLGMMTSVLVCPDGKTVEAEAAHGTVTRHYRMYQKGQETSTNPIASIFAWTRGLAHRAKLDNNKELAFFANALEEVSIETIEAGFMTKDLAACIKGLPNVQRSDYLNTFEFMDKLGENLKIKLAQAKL

In the test the target is IDH1 R132H (Homo sapiens (Human), UniProt O75874, R132H). Briefly: In vitro assay for IDH1m (R132H) inhibitors, NADPH depletion with resazurin/resorufin detection. The following applies: IDH1 R132H enzyme, 50 minutes at room temperature; read-out: IDH R132H IC50. The format is biochemical. How it is done:
Assays were conducted in a volume of 76 μl assay buffer (150 mM NaCl, 10 mM MgCl2, 20 mM Tris pH 7.5, 0.03% bovine serum albumin) as follows in a standard 384-well plate: To 25 ul of substrate mix (8 uM NADPH, 2 mM aKG), 1 μl of test compound was added in DMSO. The plate was centrifuged briefly, and then 25 μl of enzyme mix was added (0.2 μg/ml IDH1 R132H) followed by a brief centrifugation and shake at 100 RPM. The reaction was incubated for 50 minutes at room temperature, then 25 μl of detection mix (30 μM resazurin, […]) was added and the mixture further incubated for 5 minutes at room temperature. The conversion of resazurin to resorufin was detected by fluorescent spectroscopy at Ex544 Em590 c/o 590.
Representative compounds of formula (I) set forth in Tables 1 and 2 were tested in this assay and the results are set forth below in Table 4.
(The colour change of resazurin is a common sign of viable cells or microbes.)
As a reminder, the IC50 is the concentration that gives 50% inhibition. For `Cc1ccc(NC(=O)Nc2cccc(C(F)(F)F)c2)cc1S(=O)(=O)Nc1cc(F)c(F)cc1F` [Compound 301], the IC50 fell in the range of 1 to 10 µM.

For `Cc1cccc(NS(=O)(=O)c2cc(NC(=O)Nc3cccc(C(F)(F)F)c3)ccc2C)c1` [Compound 302], the IC50 lay within 1 to 10 µM. As to `Cc1ccc(NC(=O)Nc2cccc(C(F)(F)F)c2)cc1S(=O)(=O)Nc1ccc(O)cc1` [Compound 304, N-(4-hydroxyphenyl)-2-methyl-5-(3-(3-(trifluoromethyl)phenyl)ureido)benzenesulfonamide], the IC50 was ≤ 1 µM.

As to `CCCOc1ccc(NS(=O)(=O)c2cc(NC(=O)Nc3cccc(C(F)(F)F)c3)ccc2C)cc1` [Compound 305], the IC50 lay in the range of 1 to 10 µM.

On to `Cc1ccc(NC(=O)Nc2cccc(C(F)(F)F)c2)cc1S(=O)(=O)Nc1ccc(OS(C)(=O)=O)cc1` [Compound 306], for which the IC50 was 1 to 10 µM. To `CCOC(=O)COc1ccc(NS(=O)(=O)c2cc(NC(=O)Nc3cccc(C(F)(F)F)c3)ccc2C)cc1` [Compound 308] belongs 1 to 10 µM; to `CC(=O)Nc1ccc(NS(=O)(=O)c2cc(NC(=O)Nc3cccc(C(F)(F)F)c3)ccc2C)cc1` [Compound 309], 1 to 10 µM; to `CCOC(=O)CNc1ccc(NS(=O)(=O)c2cc(NC(=O)Nc3cccc(C(F)(F)F)c3)ccc2C)cc1` [Compound 310], 1 to 10 µM. With `Cc1ccc(NC(=O)Nc2cccc(C(F)(F)F)c2)cc1S(=O)(=O)Nc1ccc(C#N)cc1` [Compound 311], the IC50 was in the range of 1 to 10 µM. To `Cc1ccc(NC(=O)Nc2cccc(C(F)(F)F)c2)cc1S(=O)(=O)Nc1ccc(C(=O)O)cc1` [Compound 312] belongs 1 to 10 µM; to `Cc1ccc(NC(=O)Nc2cccc(C(F)(F)F)c2)cc1S(=O)(=O)Nc1ccc(S(C)(=O)=O)cc1` [Compound 313], 1 to 10 µM; to `Cc1ccc(NC(=O)Nc2cccc(C(F)(F)F)c2)cc1S(=O)(=O)Nc1cccc(CCc2ccccc2)c1` [Compound 314], 1 to 10 µM. Regarding `Cc1ccc(NC(=O)Nc2cccc(C(F)(F)F)c2)cc1S(=O)(=O)Nc1ccc2c(c1)OCCO2` [Compound 315, N-(2,3-dihydrobenzo[b][1,4]dioxin-6-yl)-2-methyl-5-(3-(3(trifluoromethyl)phenyl)ureido)benzenesulfonamide], the IC50 was 1 to 10 µM. To `Cc1ccc(NC(=O)Nc2cccc(C(F)(F)F)c2)cc1S(=O)(=O)Nc1ccc2cc[nH]c2c1` [Compound 316, N-(1H-indol-6-yl)-2-methyl-5-(3-(3-(trifluoromethyl)phenyl)ureido)benzenesulfonamide] belongs 1 to 10 µM; to `CC(=O)n1ccc2cc(NS(=O)(=O)c3cc(NC(=O)Nc4cccc(C(F)(F)F)c4)ccc3C)ccc21` [Compound 318], 1 to 10 µM; to `Cc1ccc(NC(=O)Nc2cccc(C(F)(F)F)c2)cc1S(=O)(=O)Nc1ccc2c(c1)ncn2C` [Compound 320, 2-methyl-N-(1-methyl-1H-benzo[d]imidazol-5-yl)-5-(3-(3-(trifluoromethyl)phenyl)ureido)benzene sulfonamide], 1 to 10 µM. To `Cc1ccc(NC(=O)Nc2cccc(C(F)(F)F)c2)cc1S(=O)(=O)Nc1cccc2ncccc12` [Compound 321] belongs 1 to 10 µM; to `Cc1ccc(NC(=O)Nc2cccc(C(F)(F)F)c2)cc1S(=O)(=O)Nc1ccc(-c2nn[nH]n2)cc1` [Compound 322], 1 to 10 µM.

Consider `Cc1ccc(NC(=O)Nc2cccc(C(F)(F)F)c2)cc1S(=O)(=O)N1CCNCC1` [Compound 323], for which the IC50 fell in the range of 1 to 10 µM. In the case of `CCOC(=O)COc1ccc(NS(=O)(=O)c2cc(NC(=O)Nc3ccc(C(F)(F)F)cc3)ccc2C)cc1` [Compound 325] it was 1 to 10 µM; in that of `Cc1ccc(NC(=O)Nc2ccc(C(F)(F)F)cc2)cc1S(=O)(=O)Nc1ccc(OCC(=O)O)cc1` [Compound 326], 1 to 10 µM. In the case of `Cc1ccc(NC(=O)Nc2ccc(C(F)(F)F)cc2)cc1S(=O)(=O)Nc1ccc(OS(C)(=O)=O)cc1` [Compound 327] it was 1 to 10 µM; in that of `CCOC(=O)C(C)Oc1ccc(NS(=O)(=O)c2cc(NC(=O)Nc3ccc(C(F)(F)F)cc3)ccc2C)cc1` (centres unmarked) [Compound 328], 1 to 10 µM; in that of `CC(=O)Nc1ccc(NS(=O)(=O)c2cc(NC(=O)Nc3ccc(C(F)(F)F)cc3)ccc2C)cc1` [Compound 329], 1 to 10 µM. To `CCOC(=O)CNc1ccc(NS(=O)(=O)c2cc(NC(=O)Nc3ccc(C(F)(F)F)cc3)ccc2C)cc1` [Compound 330] belongs 1 to 10 µM.

In the case of `Cc1ccc(NC(=O)Nc2ccc(C(F)(F)F)cc2)cc1S(=O)(=O)Nc1ccc(S(C)(=O)=O)cc1` [Compound 331], the IC50 fell in the range of 1 to 10 µM. Turning to `Cc1ccc(NC(=O)Nc2ccc(C(F)(F)F)cc2)cc1S(=O)(=O)Nc1cccc(CCc2ccccc2)c1` [Compound 332], the IC50 lay within 1 to 10 µM. As for `CCc1ccc(NC(=O)Nc2cccc(C(F)(F)F)c2)cc1S(=O)(=O)Nc1ccc(Cl)cc1` [Compound 333], the IC50 lay within 1 to 10 µM. In the case of `Cc1ccc(NC(=O)Nc2cccc(S(=O)(=O)Nc3ccccc3)c2)cc1S(=O)(=O)Nc1ccc(Cl)cc1` [Compound 334] it was 1 to 10 µM. To `Cc1ccc(NC(=O)Nc2cccc(S(=O)(=O)Nc3ccc(Cl)cc3)c2)cc1S(=O)(=O)Nc1ccccc1` [Compound 335] belongs 1 to 10 µM; to `Cc1ccc(NC(=O)Nc2ccc(C)c(S(=O)(=O)Nc3ccc(Cl)cc3)c2)cc1S(=O)(=O)Nc1ccc(Cl)cc1` [Compound 336], 1 to 10 µM; to `O=C(Nc1cccc(C(F)(F)F)c1)Nc1cc(S(=O)(=O)Nc2ccccc2)ccc1-c1ccsc1` [Compound 351, N-phenyl-4-(thiophen-3-yl)-3-(3-(3-(trifluoromethyl)phenyl)ureido)benzenesulfonamide], 1 to 10 µM. Turning to `Cc1ccc(NC(=O)Nc2cccc(C(F)(F)F)c2)cc1S(=O)(=O)Nc1cccc(O)c1` [compound 303], the 50% inhibitory concentration (IC50) lay within 1 to 10 µM.

As to “N-(1H-benzo[d]imidazol-7-yl)-2-methyl-5-(3-(3-(trifluoromethyl)phenyl)ureido)benzenesulfonamide [Compound 319]”, the IC50 fell in the range of 1 to 10 µM. To “N-(1H-indol-7-yl)-2-methyl-5-(3-(3-(trifluoromethyl)phenyl)ureido)benzenesulfonamide [Compound 317]” belongs 1 to 10 µM.
